Source: US11582969B2, “Non-nematicidal composition and use thereof” (BioAtlantis Limited, priority 2013, dated 2023)
Marks after values point to notes of the source that are not given here.

What was measured:
[1] = tested on: Creeping bentgrass; experiment: Pre-soaking seeds: early root growth; type: in vivo; conditions: seeds pre-soaked 16 hours, 7 day period, n = 10
Method: (§1) The effects of Composition 1 and fucoidan on Creeping bentgrass and Perennial ryegrass root growth were examined in the laboratory setting in the presence or absence of plant parasitic nematodes in 2010. Seeds were pre-soaked in test materials for 16 hours each and left to germinate on wet USGA sand at 16° C. Roots were analysed using WinRHIZO image analysis system, following a 7 day period to assess mean root length following applications (n=10 seedlings per treatment). Experiments were also undertaken to assess the efficacy of Composition 1 and fucoidan in enhancing root length in the presence or absence of plant pathogenic nematodes. Seedlings (×7 replication) were established in sand columns containing USGA specification sand and sprayed on a weekly basis with either Composition 1 or fucoidan. […] Fucoidan was applied at a rate equivalent to 600 g/Ha. Root knot nematodes of the species Meloidogyne minor were inoculated around the roots in week 1, as second stage juveniles. Roots were analysed using WinRHIZO image analysis system following a 25 days period.

[2] = tested on: Perennial ryegrass; experiment: Pre-soaking seeds: early root growth; type: in vivo; conditions: seeds pre-soaked 16 hours, 7 day period
Method: as §1

[3] = tested on: Creeping bentgrass, with or without Meloidogyne minor; experiment: Seedling root length in sand columns with or without Meloidogyne minor; type: in vivo; conditions: weekly spray, 25 days, n = 7
Method: as §1

[4] = tested on: Perennial ryegrass, with or without Meloidogyne minor; experiment: as above; type: in vivo; conditions: weekly spray, 25 days, n = 7
Method: as §1

[5] = tested on: potatoes grown in plots infested with Globodera pallida; experiment: Field trial 2013: potato yield with isolated bioactives in plots infested with Globodera pallida; type: in vivo, Solanum tuberosum; conditions: 2013, average yield per drill (2.59 m^2)
From the text: Differences in efficacy achieved with Composition 1 and Composition 2 in field trials between 2008-2012 pointed to a differential effect of bioactive levels within the two compositions (Example 1). Laboratory trials on grass species grown in the presence of Meloidogyne minor identified fucan (fucoidan) as one of the bioactives responsible for enhancing growth (Example 2). Despite lower levels of fucoidan, Composition 1 also achieved equivalent increases in root growth in the same trial as compared with the purified fucoidan. […] A field trial was undertaken in 2013 to further determine which bioactives or combinations of bioactives are responsible for conferring enhancements in total and marketable yield in nematode infested growth media. As in previous trials, the forms of glucan and fucan used were laminarin and fucoidan respectively.
Bioactives were isolated and stock solutions prepared to contain glucan alone, mannitol alone, glucan+mannitol, fucan+mannitol and glucan+fucan. The efficacy of the bioactive fractions were assessed in plots known to be infested with Globodera pallida. Treatments were fully randomized with plots of approximately 16 m^2 in area and 6 drills wide. Twelve tubers were planted per drill. One metre spacing was placed between blocks with two drills fallow between treatments. The dimensions of the drills were 0.7 meters wide and 3.7 meters in length. The cultivar Navan, (Solanum tuberosum L. ev. Navan) was planted and compositions applied by foliar spray at 50% post-emergence and at approximately seven day intervals thereafter. Foliar spray ceased once senescence was noticed. For each of the 5 treatments, a total of 621 g of bioactives was applied per Ha. A nematicidal treatment, Vydate, was applied at full rate as a separate treatment. Standard compound fertilizers and fungicides were applied at recommended rates and intervals. The crop was harvested in November. Total harvest weight and marketable yield (>35 mm category) was measured, with comparisons between bioactive treatments and nematicide made by means of One-Way ANOVA.

[6] = inoculation with Meloidogyne minor
[7] = no inoculation with Meloidogyne minor

fucoidan
Mean Root length (mm) [1]: 39.1 ^a mm
Mean Root length (mm) ([2]; n = 10): 48.9 ^b mm
Mean Root length (mm) ([2]; n = 10, listed as fucoidan): 48.9 mm
mean root length (mm), +Mm [3, 6]: 20.2^b mm
mean root length (mm), −Mm [3, 7]: 27.1^b mm
mean root length (mm), +Mm [4, 6]: 102.2^b mm
mean root length (mm), −Mm [4, 7]: 129.2^c mm

OC[C@@H](O)[C@@H](O)[C@H](O)[C@H](O)CO [Mannitol-alone, mannitol]
Total Weight (g) [5]: 9652** g
Marketable weight (g) ([5]; >35 mm): 9324* g
Marketable weight ([5]; >35 mm, listed as mannitol-alone): 9324 g
Total Weight ([5]; listed as mannitol-alone): 9652 g

laminarin [Glucan-alone]
Total Weight [5]: 10524 g
Marketable weight ([5]; >35 mm): 10218 g
